Key:
Type in all cases: cell-based
[1] = tested on: MV4-11 cells; assay: MV4-11 cellular proliferative assay, Assay Format B (CTG 2.0, 168 h); settings: Homo sapiens
In short: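 MV4-11 cells seeded overnight in IMDM + 10% FBS, then exposed to 10-point, 3-fold dilutions from 1 uM or 100 nM top concentration (0.3% DMSO final) for 168 h at 37 °C. CTG 2.0 luminescence read; % viability vs DMSO control fitted by four-parameter logistic regression.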

[2] = biological target: T1, MLLT1 (Homo sapiens, UniProt Q03111); assay: MLLT1 degradation assay in MV4-11 cells (JESS chemiluminescent detection), three concentrations, 24 h; settings: with respect to DMSO control
T1 construct: host or cells: MV4-11
T1 sequence (Q03111 1-559): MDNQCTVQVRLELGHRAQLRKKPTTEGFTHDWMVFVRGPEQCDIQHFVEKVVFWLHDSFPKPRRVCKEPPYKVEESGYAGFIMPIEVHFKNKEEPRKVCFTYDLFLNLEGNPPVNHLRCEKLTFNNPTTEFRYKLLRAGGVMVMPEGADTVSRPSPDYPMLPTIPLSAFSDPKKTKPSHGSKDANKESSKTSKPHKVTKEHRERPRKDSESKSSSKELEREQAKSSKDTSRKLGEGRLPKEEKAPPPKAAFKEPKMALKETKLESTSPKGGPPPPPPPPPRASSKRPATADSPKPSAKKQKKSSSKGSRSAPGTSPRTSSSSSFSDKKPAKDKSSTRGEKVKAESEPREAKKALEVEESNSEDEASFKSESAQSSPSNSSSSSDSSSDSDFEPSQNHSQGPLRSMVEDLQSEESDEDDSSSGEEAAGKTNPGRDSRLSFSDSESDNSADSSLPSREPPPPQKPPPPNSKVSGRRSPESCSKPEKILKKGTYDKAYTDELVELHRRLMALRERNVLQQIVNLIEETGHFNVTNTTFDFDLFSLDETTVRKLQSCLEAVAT
In short: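 MV4-11 cells treated 24 h at 37° C, 5% CO2 with 1000, 100 and 10 nM compound (0.1% DMSO final). MLLT1 quantified by automated capillary chemiluminescent immunodetection; band peak area expressed as % degradation relative to DMSO control.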

[3] = biological target: T1, MLLT1; assay: MLLT1 DC50 and Dmax determination in MV4-11 cells (JESS), dose response, 4 h; settings: MLLT1 degradation; for Dmax: maximum % degradation observed
Description: MLLT1 degradation efficacy of compounds was tested in an automated chemiluminescent detection system (JESS, Cat #004-650). MV4-11 (#CRL-9591, ATCC) were seeded at a density of 1.2 million cells/well in a non-treated 6-well cell culture plate in 2.4 mL of complete medium (IMDM+10% FBS+1X Penicillin-Streptomycin). 10 mM DMSO stocks were prepared, and cells were treated with eight concentrations of test compounds, starting from 100 nM, 5-fold dilution, at a final DMSO concentration of 0.1% and incubated for 4 h at 37° C., 5% CO2. Post incubation, cells were centrifuged, washed with HBSS and lysed in 60 μL of RIPA buffer supplemented with Protease inhibitors (sc-24948; Santa Cruz). Protein estimation was done using BCA protein assay kit (23228; Pierce). 4 μg protein lysate (4 μL of 1 μg/μL lysate) was loaded into each well of the JESS cartridge (SM-W004; Bio-techne) and the JESS run was performed using 1:900 dilution of anti-human MLLT1 antibody (ABE2596; Merck) and 1:1200 dilution of anti-human GAPDH antibody (2118; Cell signaling technology) with anti-rabbit secondary detection module (DM-001; Bio-Techne). Post run, data was analysed using “Compass for SW” software for chemiluminescent detection. Peak fit was done using “dropped lines” method. Peak area for MLLT1 and GAPDH was used for the calculation of MLLT1 degradation with respect to DMSO control. Data was shown as “% degradation”. % Degradation was plotted against the respective doses (test compound concentration) and dose-response curve (DRC) was generated using four-parameter logistic equation (non-linear regression). Following parameters for each DRC was captured: DC50 (concentration in nM at which degradation is 50%, interpolated from standard curve and transformed to linear scale), Dmax (maximum % degradation observed). DC50 and Dmax data are captured in Table 9 for Example 8 and Example 234, which is a comparative example.

[4] = tested on: MV4-11 cells; assay: MV4-11 cellular proliferative assay, Assay Format A (CellTiter-Glo, 120 hours); settings: Homo sapiens
In short: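 Over 120 h, MV4-11 cells seeded at 50 cells/well in IMDM/10% FBS were exposed to compound (10 semi-log dilutions, 30 μM top). Viability was read by CellTiter-Glo luminescence. Signals were normalised to DMSO and reference-compound wells, and AC50 came from a Hill fit.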

[5] = Assay Method B, read-out: MV4-11 Antiproliferation IC50

Compound	IC50 ([1]; 168 h (7 days), CTG 2.0, read-out: IC50 (MV4-11 cellular proliferative assay, Assay format B)) [nM]	IC50 [1, 5] [nM]	MLLT1% Degradation @ 0.01 μM [2]	MLLT1% Degradation @ 0.1 μM [2]	MLLT1% Degradation @ 1 μM [2]	DC50 [3] [nM]	Dmax [3] [%]	IC50 [4] [nM]
CN1CCC[C@@H]1c1cc2cnc(NC(=O)c3ccc(CCCCC#Cc4cccc5c4CN(C4CCC(=O)NC4=O)C5=O)cc3)cc2[nH]1 (mixture of isomers) [Example 8, 4-(6-(2-(2,6-dioxopiperidin-3-yl)-1-oxoisoindolin-4-yl)hex-5-yn-1-yl)-N-(2-((R)-1-methylpyrrolidin-2-yl)-1H-pyrrolo[3,2-c]pyridin-6-yl)benzamide]	≤ 100	1.5	A (Category A: A ≥ 75% degradation)	A (Category A: A ≥ 75% degradation)	A (Category A: A ≥ 75% degradation)	0.4	87	
CN1CCC[C@@H]1c1cc2cnc(NC(=O)c3ccc(OCC#Cc4cccc5c4CN(C4CCC(=O)NC4=O)C5=O)cc3F)cc2[nH]1 (stereo partly drawn) [Example 57, 4-((3-(2-(2,6-dioxopiperidin-3-yl)-1-oxoisoindolin-4-yl)prop-2-yn-1-yl)oxy)-2-fluoro-N-(2-((R)-1-methylpyrrolidin-2-yl)-1H-pyrrolo[3,2-c]pyridin-6-yl)benzamide]			A (Category A: A ≥ 75% degradation)	A (Category A: A ≥ 75% degradation)	A (Category A: A ≥ 75% degradation)			≤ 100
CN1CCC[C@@H]1c1cc2cnc(NC(=O)c3cccc(OCC#Cc4cccc5c4CN(C4CCC(=O)NC4=O)C5=O)c3)cc2[nH]1 (stereo partly drawn) [Example 58, 3-((3-(2-(2,6-dioxopiperidin-3-yl)-1-oxoisoindolin-4-yl)prop-2-yn-1-yl)oxy)-N-(2-((R)-1-methylpyrrolidin-2-yl)-1H-pyrrolo[3,2-c]pyridin-6-yl)benzamide]			B (Category B: 50% ≤ B < 75% degradation)	A (Category A: A ≥ 75% degradation)	C (Category C: 25% ≤ C < 50% degradation)			≤ 100
O=C1CCC(N2Cc3c(C#CCCCCc4ccc(C(=O)Nc5cc6[nH]c(CN7CCCC7)cc6cn5)cc4)cccc3C2=O)C(=O)N1 (stereo not drawn) [Example 234, 4-(6-(2-(2,6-dioxopiperidin-3-yl)-1-oxoisoindolin-4-yl)hex-5-yn-1-yl)-N-(2-(pyrrolidin-1-ylmethyl)-1H-pyrrolo[3,2-c]pyridin-6-yl)benzamide]		> 1000				6.4	60	
